Data on seven molecules can be found in patent publication US6649814B2, “Cytochrome P450 monooxygenases” (Syngenta Participations AG, priority 1997, dated 2003).

Data set [1] deals with T1, cytochrome P450OX (Sorghum bicolor, UniProt O48958).
T1 sequence (O48958 2-531): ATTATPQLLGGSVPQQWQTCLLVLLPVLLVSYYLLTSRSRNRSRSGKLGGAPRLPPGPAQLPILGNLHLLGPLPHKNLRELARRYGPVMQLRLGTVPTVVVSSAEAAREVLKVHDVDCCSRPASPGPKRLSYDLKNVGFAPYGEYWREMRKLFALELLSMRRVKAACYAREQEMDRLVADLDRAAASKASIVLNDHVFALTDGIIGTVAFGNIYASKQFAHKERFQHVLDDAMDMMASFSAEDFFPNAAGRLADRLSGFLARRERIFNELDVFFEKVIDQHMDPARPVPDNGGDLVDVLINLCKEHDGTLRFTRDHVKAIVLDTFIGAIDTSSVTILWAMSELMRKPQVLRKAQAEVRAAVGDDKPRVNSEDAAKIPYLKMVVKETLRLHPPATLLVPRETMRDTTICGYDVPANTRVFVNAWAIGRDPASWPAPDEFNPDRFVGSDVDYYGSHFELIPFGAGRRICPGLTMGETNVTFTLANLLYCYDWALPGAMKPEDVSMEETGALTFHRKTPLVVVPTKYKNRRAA
Put plainly: reconstitution of cytochrome P450OX activity in lipid micelles. The data set is classed as biochemical. Details: from tissue; host or cells: microsomes of etiolated Sorghum bicolor seedlings. The note with it: 10 mM, in place of NADPH. An excerpt:
(§1) Reconstitution of the enzyme activity of a microsomal cytochrome P450 is accomplished by inserting the cytochrome P450 enzyme and the corresponding NADPH cytochrome P450 oxidoreductase into lipid micelles. A mixture of lipids can be used but in the case of cytochrome P450OX, dilauroylphosphatidylcholine (DLPC) provides the best enzymatic activity. The number of correctly formed complexes of cytochrome P450OX and NADPH cytochrome P450 oxidoreductase are a rate limiting factor. Excess amounts of the oxidoreductase and concentrated enzyme solutions are utilized to ensure a sufficient number of active complexes.
(§2) A functionally reconstituted enzyme is obtained using the following components: […]
(§3) The complete reaction mixtures contain: 3 μl of isolated, recombinant P450TYR (6 pmol, heterologously expressed in E. coli and isolated as in Halkier et al, Arch. Biochem. Biophys. 322: 369-377, 1995), 10 μl of isolated and dialyzed P450OX (approximately 0.4 pmol), 5 μl of NADPH-P450 oxidoreductase (0.075 U), 1 μl of partially purified UDPG glucosyl transferase from Sorghum, 5 μl of DLPC (10 mg/ml in 50 mM Kpi (pH7)), 0.25 μl of [U-^14C]-tyrosine ([…], 443 mCi/mmol, Amersham), 3 μl of UDPG (33 mg/ml in 50 mM Kpi (pH7)), and 3 μl of castanospermin (2 mM in 50 mM Kpi (pH7)). […] The first set of reaction mixtures is analyzed using the ethyl acetate/toluene solvent as in example 4.5. […]

Data set [2] deals with glucosidase activity present in the UDPG glucosyltransferase extract. Put plainly: inhibition of glucosidase activity in the in vitro dhurrin reconstitution. In kind it is biochemical, Sorghum. The note with it: 3 μl of 2 mM in 30 μl reaction mixture. As for the experimental part: as §3, with “4.5. The second set of reaction mixtures is analyzed using a solvent system consisting of ethyl acetate/acetone/dichloromethane/methanol/water (20/15/6/5/4, v/v/v/v/v) in order to achieve separation of the hydrophilic product dhurrin from tyrosine and from the hydrophobic intermediates.” for “4.5.”
The combined use of isolated P450TYR and P450OX in reconstitution experiments with radiolabeled tyrosine as substrate results in the production of p-hydroxyphenylacetonitrile and p-hydroxybenzaldehyde. […] Due to the lability of p-hydroxymandelonitrile its conversion to dhurrin is experimentally detected as a disappearance of p-hydroxybenzaldehyde. […]

The subject of the next data set is microsomal system. As to conditions: the substance is the substrate, cited from earlier work; for Km: read-out: Km for p-hydroxymandelonitrile production.
The target in data set [3] is T1, cytochrome P450OX. Put plainly: reconstitution of cytochrome P450OX activity in lipid micelles. The data set is classed as biochemical. Details: 10 μl of the cytochrome P450OX (approximately 0.4 pmol) solution; from tissue; host or cells: microsomes of etiolated Sorghum bicolor seedlings.
Excerpt: as §1, §2, §3

For a further data set, the target named is T2, P450OX (Sorghum bicolor, UniProt O48958).
T2 construct: from tissue; host or cells: microsomes of etiolated Sorghum bicolor seedlings
T2 sequence (O48958 1-531): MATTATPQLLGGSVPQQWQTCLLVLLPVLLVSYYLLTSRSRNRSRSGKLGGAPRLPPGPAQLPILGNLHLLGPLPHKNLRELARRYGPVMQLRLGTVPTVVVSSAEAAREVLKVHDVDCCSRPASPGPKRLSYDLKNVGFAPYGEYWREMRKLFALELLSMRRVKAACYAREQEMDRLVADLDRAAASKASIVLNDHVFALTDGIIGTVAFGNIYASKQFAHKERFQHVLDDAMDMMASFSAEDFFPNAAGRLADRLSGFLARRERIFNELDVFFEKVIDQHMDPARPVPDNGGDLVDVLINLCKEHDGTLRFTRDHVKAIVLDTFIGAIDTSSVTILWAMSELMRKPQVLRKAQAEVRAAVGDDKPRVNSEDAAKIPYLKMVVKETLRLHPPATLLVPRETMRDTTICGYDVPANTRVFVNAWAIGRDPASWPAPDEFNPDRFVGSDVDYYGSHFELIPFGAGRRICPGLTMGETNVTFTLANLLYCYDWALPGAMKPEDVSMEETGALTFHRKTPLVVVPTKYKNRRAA
Put plainly: substrate binding spectra of isolated P450OX. The note with it: for substrate binding spectrum: upon substrate addition. Here is the method:
The identification of P450OX as a multifunctional enzyme converting p-hydroxyphenylacetaldoxime to p-hydroxymandelonitrile with p-hydroxyphenylacetonitrile as an intermediate stimulated us to investigate the substrate binding ability of P450OX. […] The amplitude increased in size upon incubation and reached a stable maximum after approximately 45 min.
The isolated P450OX produces a reverse Type I substrate binding spectrum upon incubation with p-hydroxyphenylacetaldoxime. The extinction coefficient E420-390 corresponding to a complete transition from one spin state to the other is 130 mM^−1 cm^−1. In the substrate binding spectra obtained, the maximal amplitudes are approximately twice as large as theoretically calculated even when assuming a complete shift from a high spin to a low spin state. […] Alternatively, the P420 form of P450OX is able to bind the oxime and thus contributes to the size of the substrate binding spectrum formed. The latter possibility could explain why maximal amplitudes are only obtained after prolonged incubation.

For another data set, the target named is T3, P450TYR (CYP79) (Sorghum bicolor, UniProt Q43135).
T3 sequence (Q43135 1-558): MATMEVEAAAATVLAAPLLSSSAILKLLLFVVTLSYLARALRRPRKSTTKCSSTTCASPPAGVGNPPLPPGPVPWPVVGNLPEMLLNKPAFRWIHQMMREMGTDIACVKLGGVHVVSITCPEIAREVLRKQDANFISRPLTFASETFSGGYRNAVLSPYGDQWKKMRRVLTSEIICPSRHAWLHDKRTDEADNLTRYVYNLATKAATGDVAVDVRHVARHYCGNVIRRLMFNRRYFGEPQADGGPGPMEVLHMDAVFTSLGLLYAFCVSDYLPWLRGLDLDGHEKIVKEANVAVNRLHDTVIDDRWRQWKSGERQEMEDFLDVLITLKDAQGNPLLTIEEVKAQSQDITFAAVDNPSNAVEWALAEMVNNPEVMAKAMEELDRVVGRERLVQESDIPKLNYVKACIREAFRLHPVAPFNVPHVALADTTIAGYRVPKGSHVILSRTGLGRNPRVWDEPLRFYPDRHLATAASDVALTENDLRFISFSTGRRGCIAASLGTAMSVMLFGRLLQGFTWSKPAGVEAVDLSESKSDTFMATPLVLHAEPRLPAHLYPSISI
As to conditions: upon in vitro reconstitution; cited from earlier work.

On to `O=S([O-])S(=O)[O-].[Na+].[Na+]` [Sodium dithionite, reference compound], for which, on cytochrome P450OX [1], the “support of metabolism of p-hydroxyphenylacetaldoxime by P450OX” value is “does not support metabolism”.
As to `O[C@H]1[C@H](O)[C@@H](O)CN2CC[C@H](O)[C@H]12` [castanospermine], the “inhibition of glucosidase activity” value in data set [2] is “efficiently inhibited”.
Regarding `ON=CCc1ccc(O)cc1` [p-hydroxyphenylacetaldoxime], in the data set on microsomal system, the Michaelis-Menten constant (Km) was 50 µM and the “Vmax for p-hydroxymandelonitrile production” value is given as 400 nmoles mg protein^−1 h^−1. Also, the “metabolism of the oxime as substrate of P450OX” value on cytochrome P450OX [3] is recorded as “fully metabolized”. Besides, at P450OX, the “incubation time until the amplitude of the binding spectrum reached a stable maximum” value was “approximately 45 min” and the substrate binding spectrum result is given as “reverse type I spectrum”.
Take `N#CCc1ccc(O)cc1` [p-hydroxyphenylacetonitrile]: in the data set with microsomal system, the Michaelis constant (Km) was 100 µM and the “Vmax for p-hydroxymandelonitrile production” value is reported as 50 nmoles mg protein^−1 h^−1. Further, on P450OX, the substrate binding spectrum result is recorded as “No substrate binding spectrum was obtained”.
On to `ON=CCc1ccccc1` [phenylacetaldoxime], for which the “metabolism of the oxime as substrate of P450OX” value on cytochrome P450OX [3] is recorded as “can metabolize”.
`N[C@@H](Cc1ccc(O)cc1)C(=O)O` [tyrosine]: in the data set with microsomal system, the Michaelis constant (Km) is 30 µM and the “Vmax for p-hydroxymandelonitrile production” value is recorded as 145 nmoles mg protein^−1 h^−1.

B1: P450TYR: cytochrome P450 of Sorghum bicolor that converts tyrosine to p-hydroxyphenylacetaldehyd oxime (protein, UniProt Q43135 2-558, looked up)
Tyrosine N-monooxygenase: ATMEVEAAAATVLAAPLLSSSAILKLLLFVVTLSYLARALRRPRKSTTKCSSTTCASPPAGVGNPPLPPGPVPWPVVGNLPEMLLNKPAFRWIHQMMREMGTDIACVKLGGVHVVSITCPEIAREVLRKQDANFISRPLTFASETFSGGYRNAVLSPYGDQWKKMRRVLTSEIICPSRHAWLHDKRTDEADNLTRYVYNLATKAATGDVAVDVRHVARHYCGNVIRRLMFNRRYFGEPQADGGPGPMEVLHMDAVFTSLGLLYAFCVSDYLPWLRGLDLDGHEKIVKEANVAVNRLHDTVIDDRWRQWKSGERQEMEDFLDVLITLKDAQGNPLLTIEEVKAQSQDITFAAVDNPSNAVEWALAEMVNNPEVMAKAMEELDRVVGRERLVQESDIPKLNYVKACIREAFRLHPVAPFNVPHVALADTTIAGYRVPKGSHVILSRTGLGRNPRVWDEPLRFYPDRHLATAASDVALTENDLRFISFSTGRRGCIAASLGTAMSVMLFGRLLQGFTWSKPAGVEAVDLSESKSDTFMATPLVLHAEPRLPAHLYPSISI
As for B1, in the data set with P450TYR (CYP79), the turn-over number is 230 min⁻¹.
